Experimental data taken from US10202387B2, “Heterocyclyl linked imidazopyridazine derivatives as PI3KB inhibitors” (Janssen Pharmaceutica NV, priority 2014, dated 2019).

Key:
[1] = biological target: T1, MTOR_h (Homo sapiens, UniProt P42345); test: Enzyme binding assay (KINOMEscan); conditions: DiscoveRx
T1 construct: purchased DiscoveRx Corporation, San Diego (KINOMEscan service)
Description: (§1) Enzyme Binding Assays (KINOMEscan®)
(§2) Kinase enzyme binding affinities of compounds disclosed herein were determined using the KINOMEscan technology performed by DiscoveRx Corporation, San Diego, Calif., USA (www.kinomescan.com). Table A reports the obtained Kd values (nM), with the Kd being the inhibitor binding constant: […]

[2] = biological target: T2, PIK3Cα_h (Homo sapiens, UniProt P42336); test: Enzyme binding assay (KINOMEscan); conditions: DiscoveRx
T2 construct: purchased DiscoveRx Corporation, San Diego (KINOMEscan service)
Description: as §1, §2

[3] = biological target: T3, PIK3Cβ_h (Homo sapiens, UniProt P42338); test: Enzyme binding assay (KINOMEscan); conditions: DiscoveRx
T3 construct: purchased DiscoveRx Corporation, San Diego (KINOMEscan service)
Description: as §1, §2

[4] = biological target: T4, PIK3Cγ_h (Homo sapiens, UniProt P48736); test: Enzyme binding assay (KINOMEscan); conditions: DiscoveRx
T4 construct: purchased DiscoveRx Corporation, San Diego (KINOMEscan service)
Description: as §1, §2

[5] = biological target: T5, PIK3Cδ_h (Homo sapiens, UniProt O00329); test: Enzyme binding assay (KINOMEscan); conditions: DiscoveRx
T5 construct: purchased DiscoveRx Corporation, San Diego (KINOMEscan service)
T5 sequence (O00329 1-1044): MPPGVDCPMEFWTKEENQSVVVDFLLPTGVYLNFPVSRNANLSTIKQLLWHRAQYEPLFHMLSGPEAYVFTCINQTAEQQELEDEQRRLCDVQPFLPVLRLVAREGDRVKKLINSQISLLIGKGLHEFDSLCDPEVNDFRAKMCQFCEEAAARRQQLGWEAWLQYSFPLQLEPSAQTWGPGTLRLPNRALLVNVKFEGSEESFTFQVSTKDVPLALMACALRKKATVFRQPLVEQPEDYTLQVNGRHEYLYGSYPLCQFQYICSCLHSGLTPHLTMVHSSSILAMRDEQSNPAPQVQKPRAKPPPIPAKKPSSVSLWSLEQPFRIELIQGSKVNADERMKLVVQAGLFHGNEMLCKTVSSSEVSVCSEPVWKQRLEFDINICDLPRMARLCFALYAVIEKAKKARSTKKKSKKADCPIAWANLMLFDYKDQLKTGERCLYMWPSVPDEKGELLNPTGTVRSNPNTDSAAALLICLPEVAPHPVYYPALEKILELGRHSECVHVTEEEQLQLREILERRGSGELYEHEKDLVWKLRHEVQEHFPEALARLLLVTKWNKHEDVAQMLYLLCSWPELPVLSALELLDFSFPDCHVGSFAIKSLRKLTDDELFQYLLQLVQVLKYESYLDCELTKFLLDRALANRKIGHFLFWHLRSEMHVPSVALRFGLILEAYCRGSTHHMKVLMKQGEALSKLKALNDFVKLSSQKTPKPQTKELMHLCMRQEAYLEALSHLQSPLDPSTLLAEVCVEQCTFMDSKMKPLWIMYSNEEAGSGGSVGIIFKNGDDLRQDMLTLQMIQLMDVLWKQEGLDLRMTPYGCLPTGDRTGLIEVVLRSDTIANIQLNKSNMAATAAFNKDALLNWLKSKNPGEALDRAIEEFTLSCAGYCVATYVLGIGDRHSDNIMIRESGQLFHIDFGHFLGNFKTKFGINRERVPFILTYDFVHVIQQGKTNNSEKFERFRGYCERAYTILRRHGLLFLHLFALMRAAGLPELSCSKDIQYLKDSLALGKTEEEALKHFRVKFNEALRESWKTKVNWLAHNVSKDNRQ
Description: as §1, §2

[6] = tested on: Akt phosphorylated at Ser473 in PC-3 cells; test: Cellular assay: phosphorylation of Akt (Ser473) in PC-3 cells, MSD ELISA; format: cell-based; conditions: Homo sapiens, 1 h, 60 min incubation with compound, read-out: IC50 pAkt_S473
Description: (§3) Cellular activity of PI3Kβ inhibitors was determined by quantifying the phosphorylation of Akt in PC-3 cells. Akt phosphorylated at Ser473 and Thr308 were measured using an enzyme-linked immunosorbent assay (ELISA; Meso Scale Discovery (MSD). Gaithersburg, Md.) and specific primary antibodies from MSD.
(§4) On day 1, PC3 cells (ATCC […]) were seeded into PerkinElmer MW96 plates at 25.000 cells per well, in 75 μl complete culture medium (DMEM (Dulbecco's Modified Eagle's Medium) high glucose. AQmedia™, D0819, Sigma-Aldrich) containing 10% heat inactivated FCS (Fetal Bovine Serum) and incubated at 37° C., 5% CO2 during 24 hours. On day 2, compound or DMSO (dimethyl sulfoxide) (0.3%) was added and cells were further incubated for 60 min at 37° C., 5% CO2 in a total volume of 100 μl of medium.
(§5) The phosphoprotein assay was executed according to vendor instructions in the Phospho-Akt (Ser473) Assay Whole Cell Lysate Kit (MSD #K15100D-3) and the Phospho-Akt (Thr308) Assay Whole Cell Lysate Kit (MSD #K151DYD-3) using the lysis, blocking and wash buffer provided.
(§6) Briefly, at the end of the cell treatment period, media were removed by aspiration and adherent cells were lysed in 50 μl ice-cold lysis buffer. MSD plates are supplied pre-coated with capture antibodies for Phospho-Akt (Ser473 and Thr308). After blocking, lysates from tissue culture plates were added and plates were washed. Then, a solution containing the detection antibody (anti-total Akt conjugated with an electrochemiluminescent compound-MSD Sulfo-tag label) was added. The signals were detected using an MSD SECTOR Imager 6000 and are proportional to the phospho-Akt titres.
(§7) Data were processed. The percentage of inhibition was plotted against the log concentration of test compounds, and the sigmoidal log concentration-effect curve of best fit was calculated by nonlinear regression analysis. From these concentration-response curves, the IC50 values were calculated. Five concentrations were used for curve fitting.

[7] = tested on: Akt phosphorylated at Thr308 in PC-3 cells; test: Cellular assay: phosphorylation of Akt (Thr308) in PC-3 cells, MSD ELISA; format: cell-based; conditions: Homo sapiens, 1 h, 60 min incubation with compound, read-out: IC50 pAkt_Thr308
Description: as §3, §4, §5, §6, §7

T3 sequence (P42338 whole entry): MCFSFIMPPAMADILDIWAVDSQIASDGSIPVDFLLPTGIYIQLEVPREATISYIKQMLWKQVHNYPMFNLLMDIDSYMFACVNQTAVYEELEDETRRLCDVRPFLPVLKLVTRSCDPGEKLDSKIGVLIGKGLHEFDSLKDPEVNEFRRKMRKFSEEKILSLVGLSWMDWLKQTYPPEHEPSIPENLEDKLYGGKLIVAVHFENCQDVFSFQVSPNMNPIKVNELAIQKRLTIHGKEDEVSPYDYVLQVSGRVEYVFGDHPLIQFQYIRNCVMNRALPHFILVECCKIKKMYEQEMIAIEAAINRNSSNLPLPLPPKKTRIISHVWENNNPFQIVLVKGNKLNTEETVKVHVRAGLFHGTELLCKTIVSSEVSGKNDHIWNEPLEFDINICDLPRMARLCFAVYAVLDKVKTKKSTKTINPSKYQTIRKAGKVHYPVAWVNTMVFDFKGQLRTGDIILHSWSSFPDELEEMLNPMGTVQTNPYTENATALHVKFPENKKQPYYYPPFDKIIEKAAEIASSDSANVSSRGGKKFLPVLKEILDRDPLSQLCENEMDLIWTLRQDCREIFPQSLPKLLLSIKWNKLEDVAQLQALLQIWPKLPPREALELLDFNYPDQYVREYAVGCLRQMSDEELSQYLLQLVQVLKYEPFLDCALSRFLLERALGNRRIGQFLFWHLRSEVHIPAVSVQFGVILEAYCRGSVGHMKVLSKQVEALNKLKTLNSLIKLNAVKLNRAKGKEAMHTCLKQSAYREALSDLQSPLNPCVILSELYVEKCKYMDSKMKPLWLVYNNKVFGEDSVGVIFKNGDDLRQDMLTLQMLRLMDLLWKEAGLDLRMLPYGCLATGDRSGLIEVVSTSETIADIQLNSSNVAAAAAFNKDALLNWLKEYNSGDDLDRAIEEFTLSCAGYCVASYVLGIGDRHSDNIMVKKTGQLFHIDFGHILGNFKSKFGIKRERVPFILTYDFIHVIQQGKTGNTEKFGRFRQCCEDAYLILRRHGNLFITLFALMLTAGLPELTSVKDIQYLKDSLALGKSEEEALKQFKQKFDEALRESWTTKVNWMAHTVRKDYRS
T2 sequence (P42336 whole entry): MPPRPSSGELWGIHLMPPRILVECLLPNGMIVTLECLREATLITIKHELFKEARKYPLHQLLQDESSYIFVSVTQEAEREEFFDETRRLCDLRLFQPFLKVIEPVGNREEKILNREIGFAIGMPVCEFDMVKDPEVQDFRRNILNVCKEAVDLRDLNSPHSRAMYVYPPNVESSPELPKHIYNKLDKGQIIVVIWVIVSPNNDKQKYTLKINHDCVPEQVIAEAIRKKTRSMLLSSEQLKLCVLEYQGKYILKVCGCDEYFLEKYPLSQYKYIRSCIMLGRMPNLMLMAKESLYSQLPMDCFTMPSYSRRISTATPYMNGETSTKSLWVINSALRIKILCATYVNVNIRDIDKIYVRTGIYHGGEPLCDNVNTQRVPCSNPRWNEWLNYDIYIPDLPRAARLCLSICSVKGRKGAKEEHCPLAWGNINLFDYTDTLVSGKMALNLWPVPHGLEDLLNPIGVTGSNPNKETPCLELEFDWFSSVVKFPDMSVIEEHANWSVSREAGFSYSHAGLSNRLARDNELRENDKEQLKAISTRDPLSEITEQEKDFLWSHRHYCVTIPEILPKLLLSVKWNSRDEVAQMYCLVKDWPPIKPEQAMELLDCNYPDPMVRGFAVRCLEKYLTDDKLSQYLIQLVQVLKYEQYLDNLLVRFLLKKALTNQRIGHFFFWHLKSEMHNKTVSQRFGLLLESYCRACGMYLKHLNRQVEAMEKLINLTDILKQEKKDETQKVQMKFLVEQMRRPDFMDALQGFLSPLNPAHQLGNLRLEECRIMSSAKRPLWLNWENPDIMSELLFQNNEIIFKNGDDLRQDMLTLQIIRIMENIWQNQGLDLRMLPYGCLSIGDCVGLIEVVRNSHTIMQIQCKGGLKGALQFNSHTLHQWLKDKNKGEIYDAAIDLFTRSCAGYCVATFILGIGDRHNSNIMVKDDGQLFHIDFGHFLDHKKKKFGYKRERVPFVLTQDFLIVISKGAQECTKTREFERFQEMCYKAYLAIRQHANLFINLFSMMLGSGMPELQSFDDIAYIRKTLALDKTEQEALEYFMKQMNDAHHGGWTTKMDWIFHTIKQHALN
T4 sequence (P48736 whole entry): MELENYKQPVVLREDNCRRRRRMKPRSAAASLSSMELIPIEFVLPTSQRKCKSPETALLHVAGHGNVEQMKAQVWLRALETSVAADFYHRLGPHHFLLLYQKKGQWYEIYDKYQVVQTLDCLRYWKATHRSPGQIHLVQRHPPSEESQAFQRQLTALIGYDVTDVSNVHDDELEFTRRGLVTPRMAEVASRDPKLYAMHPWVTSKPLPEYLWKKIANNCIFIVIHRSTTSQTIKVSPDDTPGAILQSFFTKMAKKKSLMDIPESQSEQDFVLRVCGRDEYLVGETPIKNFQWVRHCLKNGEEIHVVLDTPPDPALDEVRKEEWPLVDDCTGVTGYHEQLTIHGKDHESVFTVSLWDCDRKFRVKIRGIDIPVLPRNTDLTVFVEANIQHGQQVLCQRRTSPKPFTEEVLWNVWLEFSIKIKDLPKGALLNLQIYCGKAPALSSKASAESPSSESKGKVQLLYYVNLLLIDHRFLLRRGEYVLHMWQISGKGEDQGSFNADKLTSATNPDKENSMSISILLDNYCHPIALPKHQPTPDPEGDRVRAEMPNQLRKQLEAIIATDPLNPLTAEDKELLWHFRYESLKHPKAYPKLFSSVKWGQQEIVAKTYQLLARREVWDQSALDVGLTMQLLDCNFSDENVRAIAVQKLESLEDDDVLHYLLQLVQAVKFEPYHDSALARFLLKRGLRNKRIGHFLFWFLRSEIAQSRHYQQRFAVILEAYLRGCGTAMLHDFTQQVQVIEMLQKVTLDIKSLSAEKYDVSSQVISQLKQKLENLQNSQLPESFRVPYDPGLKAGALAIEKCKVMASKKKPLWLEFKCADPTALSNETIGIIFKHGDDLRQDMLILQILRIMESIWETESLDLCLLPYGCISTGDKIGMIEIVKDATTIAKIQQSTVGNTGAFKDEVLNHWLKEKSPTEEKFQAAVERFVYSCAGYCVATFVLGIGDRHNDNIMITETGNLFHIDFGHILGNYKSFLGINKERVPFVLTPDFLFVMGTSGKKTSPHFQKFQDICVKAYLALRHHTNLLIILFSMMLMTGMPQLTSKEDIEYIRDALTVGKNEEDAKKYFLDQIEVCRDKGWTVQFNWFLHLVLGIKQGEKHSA

SMILES | Kd [1] [nM] | Kd [2] [nM] | Kd [3] [nM] | Kd [4] [nM] | Kd [5] [nM] | IC50 [6] [nM] | IC50 [7] [nM] | melting point [°C]
Cc1c(Cc2c(CN3CC4(C3)CS(=O)(=O)C4)nc3c(-c4ncc[nH]4)cc(N4CCOCC4)nn23)cccc1C(F)(F)F [Compound 20] | 9330 | 275 | 1.3 | 1550 | 32 | ~34 | ~20 | 150
Cc1c(Cc2c(CC(=O)N3CC(C)NC(C)C3)nc3c(N)cc(N4CCOCC4)nn23)cccc1C(F)(F)F (stereo not shown) [Compound 22] | 10700 | 2240 | 0.5 | 8910 | 56 | 45 | ~26 | 110
Cc1c(Cc2c(CC(=O)N3CCS(=O)(=O)CC3)nc3c(N)cc(N4CCOCC4)nn23)cccc1C(F)(F)F [Compound 23] | > 30200 | 2240 | 1.5 | > 30200 | 240 | ~79 | ~68 | 226
Cc1c(Cc2c(CC(=O)N3CC(CO)C3)nc3c(N)cc(N4CCOCC4)nn23)cccc1C(F)(F)F [Compound 24] | 3980 | 3160 | 0.5 | 17000 | 52 | 49 | 15 | 130
Cc1c(Cc2c(CN3CC(C)NC(C)C3)nc3c(-c4ccn[nH]4)cc(N4CCOCC4)nn23)cccc1C(F)(F)F (stereo not shown) [Compound 25] | 407 | 1150 | 2 | 5250 | 98 | 214 | 234 | 159
Cc1c(Cc2c(CN3CC4(C3)CS(=O)(=O)C4)nc3c(C(N)=O)cc(N4CCOCC4)nn23)cccc1C(F)(F)F [Compound 26] | > 30200 | 692 | 3 | 10700 | 372 | 275 | ~62 | 216
Cc1c(Cc2c(CN3CCC4(CCS4(=O)=O)C3)nc3c(N)cc(N4CCOCC4)nn23)cccc1C(F)(F)F (stereo not shown) [Compound 32] | > 30200 | 15100 | 2.5 | > 30200 | 251 | 91 | 74 | 214
Cc1c(Cc2c(CN3CCC4(CCCCS4(=O)=O)C3)nc3c(N)cc(N4CCOCC4)nn23)cccc1C(F)(F)F (stereo not shown) [Compound 33] | > 30200 | 13500 | 3 | > 30200 | 398 | 120 | 100 | 228
Cc1c(Cc2c(CNC(=O)[C@@H]3C[C@@H](O)CN3)nc3c(N)cc(N4CCOCC4)nn23)cccc1C(F)(F)F [Compound 36] | 3140 | 1390 | 0.1 | 3000 | 5 | ~73 | ~50 | 140
Cc1c(Cc2c(COC(=O)CN3CCN(C)CC3)nc3c(N)cc(N4CCOCC4)nn23)cccc1C(F)(F)F [Compound 40b] | 21900 | 25100 | 2.8 | > 30200 | 479 | 214 | 105 | 99
Cc1c(F)cccc1Cc1c(CN2CC(O)C2)nc2c(N)cc(N3CCOCC3)nn12 [Compound 42] | 1230 | 4470 | 1.1 | 2690 | 123 | 117 | 55 | 214
Cc1c(F)cccc1Cc1c(CN2CCS(=O)(=O)CC2)nc2c(N)cc(N3CCOCC3)nn12 [Compound 43] | 1380 | 2040 | 0.4 | > 30200 | 62 | 10 | 17 | 130
CCc1c(F)cccc1Cc1c(CN2CC(O)C2)nc2c(N)cc(N3CCOCC3)nn12 [Compound 44] | 1050 | 1700 | 5.4 | 537 | 275 | 316 | 145 | 172
CCc1c(F)cccc1Cc1c(CN2CCS(=O)(=O)CC2)nc2c(N)cc(N3CCOCC3)nn12 [Compound 45] | 2000 | 2400 | 1.1 | > 30200 | 178 | > 513 | > 513 | 240
